Experimental data from PubChem BioAssay AID1745844 (Carcinogenic Potency Database (CPDB), 2022).
Several values for one entry are separate records, joined by “and”; a condition that tells them apart may be missing. Identical values can stand only once. Activity calls are given as the source filed them. The rule behind the calls is not given here.

Test system: rodent lifetime carcinogenesis bioassay, tumor incidence TD50
Assay: chronic cancer bioassays in animals – CPDB, compiled studies (AID 1745844)
[1] = mouse, strain B6C3F1, females, in feed, site: any site (literature study), lesion: several types, types named in the paper, dosed 103 weeks, study length 104 weeks
[2] = mouse, strain B6C3F1, females, in feed, site: liver, lesion: hepatocellular adenoma + hepatocellular carcinoma + neoplastic nodule, dosed 103 weeks, study length 104 weeks
[3] = mouse, strain B6C3F1, females, in feed, site: liver, lesion: hepatocellular carcinoma, dosed 103 weeks, study length 104 weeks
[4] = mouse, strain B6C3F1, females, in feed, site: lung, lesion: alveolar/bronchiolar adenoma + alveolar/bronchiolar carcinoma, dosed 103 weeks, study length 104 weeks
[5] = mouse, strain B6C3F1, males, in feed, site: any site (literature study), lesion: several types, types named in the paper, dosed 103 weeks, study length 104 weeks
[6] = mouse, strain B6C3F1, males, in feed, site: liver, lesion: hepatocellular adenoma + hepatocellular carcinoma + neoplastic nodule, dosed 103 weeks, study length 104 weeks
[7] = mouse, strain B6C3F1, females, in feed, site: liver, lesion: hepatocellular carcinoma, dosed 91 weeks, study length 91 weeks
[8] = mouse, strain B6C3F1, females, in feed, site: liver, lesion: several types, types named in the paper, dosed 91 weeks, study length 91 weeks
[9] = mouse, strain B6C3F1, females, in feed, site: liver, lesion: several types, types named in the paper, dosed 100 weeks, study length 100 weeks
[10] = rat, strain Fischer 344, males, in feed, site: liver, lesion: hepatocellular adenoma + hepatocellular carcinoma + neoplastic nodule, dosed 103 weeks, study length 104 weeks

`Cc1noc(NS(=O)(=O)c2ccc(N)cc2)c1C` was tested, and the TD50 [1] was 8180 mg/kg/day, the TD50 [2] was 2650 mg/kg/day and the TD50 [3] was 2650 mg/kg/day (inactive). The TD50 [4] was 11900 mg/kg/day, the carcinogen call [5] was “negative (inactive)” and the TD50 [6] was 6910 mg/kg/day. The TD50 (mouse, strain B6C3F1, males, in feed, site: lung, lesion: alveolar/bronchiolar adenoma + alveolar/bronchiolar carcinoma, dosed 103 weeks, study length 104 weeks) was 49500 mg/kg/day, the carcinogen call (rat, strain Fischer 344, females, in feed, site: any site (literature study), lesion: several types, types named in the paper, dosed 103 weeks, study length 106 weeks) was “negative (inactive)” and the TD50 (rat, strain Fischer 344, males, in feed, site: any site (literature study), lesion: several types, types named in the paper, dosed 103 weeks, study length 105 weeks) was 135 mg/kg/day (inactive). It also gave a TD50 (rat, strain Fischer 344, males, in feed, site: liver, lesion: hepatocellular adenoma + hepatocellular carcinoma + neoplastic nodule, dosed 103 weeks, study length 105 weeks) of 26300 mg/kg/day.

With `C[C@@H]1C\C=C/C=C/C=C/C=C/[C@H](O[C@@H]2O[C@H](C)[C@@H](O)[C@H](N)[C@@H]2O)C[C@@H]2O[C@](O)(C[C@@H](O)C[C@@H]3O[C@@H]3/C=C\C(=O)O1)C[C@H](O)[C@H]2C(=O)O` the carcinogen call (rat, strain CFN, females, in feed, site: liver, lesion: malignant hepatoma, dosed 105 weeks, study length 105 weeks) was “negative (inactive)”, the TD50 (rat, strain CFN, males, in feed, site: lung, lesion: lymphosarcoma, dosed 105 weeks, study length 105 weeks) was 1970 mg/kg/day (inactive) and the carcinogen call (rat, strain CFN, males, in feed, site: thymus gland, lesion: thymoma, dosed 105 weeks, study length 105 weeks) was “negative (inactive)”.

`O=C(O)c1ccc(O)c(O)c1` was tested, and the carcinogen call (hamster, strain Syrian Golden, females, in feed, site: liver, lesion: one or several types, types not named, dosed 49 weeks, study length 52 weeks) was “negative (inactive)” and the carcinogen call (hamster, strain Syrian Golden, females, in feed, site: lung, lesion: one or several types, types not named, dosed 49 weeks, study length 52 weeks) was “negative (inactive)”.

In the case of `CNc1ccc(N(CCO)CCO)cc1[N+](=O)[O-]`, the TD50 [1] is reported as 373 mg/kg/day, the TD50 [2] is reported as 179 mg/kg/day and the TD50 (mouse, strain B6C3F1, females, in feed, site: liver, lesion: hepatocellular adenoma + hepatocellular carcinoma, dosed 103 weeks, study length 104 weeks) is reported as 179 mg/kg/day. The TD50 (mouse, strain B6C3F1, females, in feed, site: liver, lesion: hepatocellular adenoma, dosed 38 weeks, study length 100 weeks) was 165 mg/kg/day, the TD50 (mouse, strain B6C3F1, females, in feed, site: liver, lesion: hepatocellular adenoma, dosed 64 weeks, study length 100 weeks) was 969 mg/kg/day and the TD50 (mouse, strain B6C3F1, females, in feed, site: liver, lesion: hepatocellular adenoma, dosed 103 weeks, study length 104 weeks) was 697 mg/kg/day. The TD50 (mouse, strain B6C3F1, females, in feed, site: liver, lesion: hepatocellular carcinoma, dosed 38 weeks, study length 100 weeks) was 114 mg/kg/day, the TD50 (mouse, strain B6C3F1, females, in feed, site: liver, lesion: hepatocellular carcinoma, dosed 64 weeks, study length 100 weeks) was 94 mg/kg/day and the TD50 [7] was 88.9 mg/kg/day and 148 mg/kg/day. The carcinogen call [7] was “positive”, the TD50 (mouse, strain B6C3F1, females, in feed, site: liver, lesion: hepatocellular carcinoma, dosed 100 weeks, study length 100 weeks) was 115 mg/kg/day and 163 mg/kg/day and 87.1 mg/kg/day and the TD50 [3] was 208 mg/kg/day. For the same molecule, the TD50 (mouse, strain B6C3F1, females, in feed, site: liver, lesion: several types, types named in the paper, dosed 38 weeks, study length 100 weeks) was 41.3 mg/kg/day, the TD50 (mouse, strain B6C3F1, females, in feed, site: liver, lesion: several types, types named in the paper, dosed 64 weeks, study length 100 weeks) was 81.5 mg/kg/day and the TD50 [8] was 85 mg/kg/day. The carcinogen call [8] was “positive”, the TD50 [9] was 70.6 mg/kg/day and 51.4 mg/kg/day and the carcinogen call [9] was “positive”. The TD50 [5] was 561 mg/kg/day, the TD50 (mouse, strain B6C3F1, males, in feed, site: liver + thyroid gland, lesion: hepatocellular carcinoma + follicular-cell adenoma, dosed 103 weeks, study length 104 weeks) was 369 mg/kg/day and the TD50 [6] was 259 mg/kg/day. For the same molecule, the TD50 (mouse, strain B6C3F1, males, in feed, site: liver, lesion: hepatocellular adenoma + hepatocellular carcinoma, dosed 103 weeks, study length 104 weeks) was 259 mg/kg/day, the TD50 (mouse, strain B6C3F1, males, in feed, site: liver, lesion: hepatocellular adenoma, dosed 103 weeks, study length 104 weeks) was 286 mg/kg/day and the TD50 (mouse, strain B6C3F1, males, in feed, site: liver, lesion: hepatocellular carcinoma, dosed 103 weeks, study length 104 weeks) was 389 mg/kg/day. The TD50 (mouse, strain B6C3F1, males, in feed, site: thyroid gland, lesion: follicular-cell adenoma, dosed 103 weeks, study length 104 weeks) was 2230 mg/kg/day, the TD50 (rat, strain Fischer 344, females, in feed, site: liver, lesion: hepatocellular adenoma + hepatocellular carcinoma + neoplastic nodule, dosed 103 weeks, study length 104 weeks) was 3310 mg/kg/day and the TD50 (rat, strain Fischer 344, females, in feed, site: lung, lesion: alveolar/bronchiolar adenoma + alveolar/bronchiolar carcinoma, dosed 103 weeks, study length 104 weeks) was 702 mg/kg/day. It also gave a TD50 (rat, strain Fischer 344, females, in feed, site: lung, lesion: alveolar/bronchiolar carcinoma, dosed 103 weeks, study length 104 weeks) of 1190 mg/kg/day, a TD50 (rat, strain Fischer 344, females, in feed, site: uterus, lesion: endometrial stromal polyp, dosed 103 weeks, study length 104 weeks) of 429 mg/kg/day and a TD50 [10] of 938 mg/kg/day. It also gave a TD50 (rat, strain Fischer 344, males, in feed, site: liver, lesion: hepatocellular carcinoma + neoplastic nodule, dosed 103 weeks, study length 104 weeks) of 938 mg/kg/day and a TD50 (rat, strain Fischer 344, males, in feed, site: liver, lesion: neoplastic nodule, dosed 103 weeks, study length 104 weeks) of 1660 mg/kg/day.

In the case of `CC(=O)C1C(=O)C=C(C)OC1=O` (stereo not given), the carcinogen call (mouse, strain B6AKF1, females, oral dosing, site: any site (literature study), lesion: several types, types named in the paper, dosed 76 weeks, study length 76 weeks) is reported as “negative (inactive)”, the carcinogen call (mouse, strain B6AKF1, females, oral dosing, site: liver, lesion: hepatoma, dosed 76 weeks, study length 76 weeks) is reported as “negative (inactive)” and the carcinogen call (mouse, strain B6AKF1, females, oral dosing, site: lung, lesion: adenoma, dosed 76 weeks, study length 76 weeks) is reported as “negative (inactive)”. For the same molecule, the carcinogen call (mouse, strain B6AKF1, males, oral dosing, site: any site (literature study), lesion: several types, types named in the paper, dosed 76 weeks, study length 76 weeks) was “negative (inactive)”, the carcinogen call (mouse, strain B6AKF1, males, oral dosing, site: liver, lesion: hepatoma, dosed 76 weeks, study length 76 weeks) was “negative (inactive)” and the carcinogen call (mouse, strain B6AKF1, males, oral dosing, site: lung, lesion: adenoma, dosed 76 weeks, study length 76 weeks) was “negative (inactive)”. The carcinogen call (mouse, strain B6C3F1, females, oral dosing, site: any site (literature study), lesion: one or several types, types not named, dosed 76 weeks, study length 76 weeks) was “negative (inactive)”, the carcinogen call (mouse, strain B6C3F1, females, oral dosing, site: liver, lesion: hepatoma, dosed 76 weeks, study length 76 weeks) was “negative (inactive)” and the carcinogen call (mouse, strain B6C3F1, females, oral dosing, site: lung, lesion: several types, types named in the paper, dosed 76 weeks, study length 76 weeks) was “negative (inactive)”. The TD50 (mouse, strain B6C3F1, males, oral dosing, site: any site (literature study), lesion: several types, types named in the paper, dosed 76 weeks, study length 76 weeks) was 202 mg/kg/day (inactive), the carcinogen call (mouse, strain B6C3F1, males, oral dosing, site: liver, lesion: hepatoma, dosed 76 weeks, study length 76 weeks) was “negative (inactive)” and the carcinogen call (mouse, strain B6C3F1, males, oral dosing, site: lung, lesion: several types, types named in the paper, dosed 76 weeks, study length 76 weeks) was “negative (inactive)”.

In the case of `O=S(=O)(O)c1ccc(N=Nc2c(O)ccc3cc(S(=O)(=O)O)ccc23)cc1`, the carcinogen call [1] is reported as “negative (inactive)”, the TD50 [4] is reported as 66400 mg/kg/day and the TD50 (mouse, strain B6C3F1, males, in feed, site: any site (literature study), lesion: several types, types named in the paper, dosed 103 weeks, study length 103 weeks) is reported as 17800 mg/kg/day. For the same molecule, the TD50 (mouse, strain B6C3F1, males, in feed, site: liver, lesion: hepatocellular adenoma + hepatocellular carcinoma + neoplastic nodule, dosed 103 weeks, study length 103 weeks) was 14200 mg/kg/day, the TD50 (mouse, strain B6C3F1, males, in feed, site: skin, lesion: fibrosarcoma + fibroma, dosed 103 weeks, study length 103 weeks) was 37500 mg/kg/day (inactive) and the carcinogen call (mouse, strain Charles River CD (Sprague-Dawley), females, in feed, site: liver, lesion: one or several types, types not named, dosed 80 weeks, study length 80 weeks) was “negative (inactive)”. For the same molecule, the carcinogen call (mouse, strain Charles River CD (Sprague-Dawley), females, in feed, site: lung, lesion: adenoma, dosed 80 weeks, study length 80 weeks) was “negative (inactive)”, the carcinogen call (mouse, strain Charles River CD (Sprague-Dawley), males, in feed, site: liver, lesion: one or several types, types not named, dosed 80 weeks, study length 80 weeks) was “negative (inactive)” and the carcinogen call (mouse, strain Charles River CD (Sprague-Dawley), males, in feed, site: lung, lesion: adenoma, dosed 80 weeks, study length 80 weeks) was “negative (inactive)”. The TD50 (rat, strain Fischer 344, females, in feed, site: any site (literature study), lesion: several types, types named in the paper, dosed 103 weeks, study length 104 weeks) was 9060 mg/kg/day (inactive), the TD50 (rat, strain Fischer 344, males, in feed, site: any site (literature study), lesion: several types, types named in the paper, dosed 103 weeks, study length 104 weeks) was 11800 mg/kg/day (inactive) and the TD50 [10] was 2520 mg/kg/day. For the same molecule, the TD50 (rat, strain Not specified, females, in feed, site: any site (literature study), lesion: several types, types named in the paper, dosed 64 weeks, study length 64 weeks) was 87.4 mg/kg/day (inactive), the carcinogen call (rat, strain Not specified, females, in feed, site: liver, lesion: one or several types, types not named, dosed 64 weeks, study length 64 weeks) was “negative (inactive)” and the TD50 (rat, strain Not specified, males, in feed, site: any site (literature study), lesion: several types, types named in the paper, dosed 64 weeks, study length 64 weeks) was 14000 mg/kg/day (inactive). The carcinogen call (rat, strain Not specified, males, in feed, site: liver, lesion: one or several types, types not named, dosed 64 weeks, study length 64 weeks) was “negative (inactive)”.
